{"source": "patent US6737383B1", "about": "“Herbicidal oxadiazolidines” (priority 1999, dated 2004)", "key": {"[1]": {"system": "Green foxtail", "test": "Test D green foxtail", "type": "in vivo", "conditions": "Rate 500 g/ha; Preemergence; 0 to 100 scale", "description": "Seeds, tubers, or plant parts of Alexandergrass (Brachiaria plantaginea), bermuda-grass (Cynodon dactylon), common pursiane (Portulaca oleracea), common ragweed (Ambrosia elatior), common groundsel (Senecio vulgaris), dallisgrass (Paspalum dilatatum), goosegrass (Eleusine indica), guineagrass (Panicum maximum), itchgrass (Rottboellia exaltata), Johnson grass (Sorghum halepense), large crabgrass (Digitaria sanguinalis), pitted morningglory (Ipomoea lacunosa), purple nutsedge (Cyperus rotundus), sandbur (Cenchrus echinatus), sourgrass (Trichachne insularis), Spanishneedles (Bidens bipinnata), surinam grass (Brachiaria decumbens) and tall mallow (Malva sylvestris) were planted into greenhouse pots of flats containing greenhouse planting medium. Plant species were grown in separate pots or individual compartments. Preemergence applications were made within one day of planting the seed or plant part.\nTest chemicals were formulated in a non-phytotoxic solvent mixture which included a surfactant and applied preemergence to the surface of the pot containing seeds in a sandy loam soil. Untreated control pots and treated pots were placed in the greenhouse for growth and visually evaluated for injury 14 to 21 days after herbicide application. Plant response ratings, summarized in Table C, are based on a 0 to 100 scale where 0 is no injury and 100 is complete control. A dash (−) response means no test result."}, "[2]": {"system": "morningglory", "test": "Test A morningglory", "type": "in vivo, Ipomoea spp.", "conditions": "0 to 10 scale where 0 is no effect and 10 is complete control", "summary_of_the_method": "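Injury scored visually after about eleven greenhouse days against untreated plants, 0 = no effect, 10 = complete control. Compounds, formulated in surfactant-containing non-phytotoxic solvent, were applied as preemergence soil drench to sandy loam plantings and as postemergence runoff spray at the 1–2 leaf stage.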"}, "[3]": {"system": "giant foxtail", "test": "Test C postemergence giant foxtail", "type": "in vivo, Setaria faberii", "conditions": "0 to 100 scale, 0 no effect, 100 complete control", "summary_of_the_method": "(§1)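 In this greenhouse assay, treated and untreated plants were kept for approximately 14 to 21 days following postemergence application, then rated by eye on a scale from 0 (no effect) to 100 (complete control).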"}, "[4]": {"system": "cocklebur", "test": "Test C postemergence cocklebur", "type": "in vivo, Xanthium strumarium", "conditions": "0 to 100 scale, 0 no effect, 100 complete control", "summary_of_the_method": "as §1"}, "[5]": {"system": "common ragweed", "test": "Test C postemergence common ragweed", "type": "in vivo, Ambrosia elatior", "conditions": "0 to 100 scale, 0 no effect, 100 complete control", "summary_of_the_method": "as §1"}, "[6]": {"system": "surinam grass", "test": "Test C postemergence surinam grass", "type": "in vivo, Brachiaria decumbens", "conditions": "0 to 100 scale, 0 no effect, 100 complete control", "description": "(§2) Compounds evaluated in this test were formulated in a non-phytotoxic solvent mixture which included a surfactant and applied to plants that were grown for various periods of time before treatment (postemergence application). A mixture of sandy loam soil and greenhouse potting mix in a 60:40 ratio was used for the postemergence test.\n(§3) Plantings of these crops and weed species were adjusted to produce plants of appropriate size for the postemergence test. All plant species were grown using normal greenhouse practices. Crop and weed species include arrowleaf sida (Sida rhombifolia), barnyardgrass (Echinochloa crus-galli), cocklebur (Xanthium strumarium), common ragweed (Ambrosia elatior), corn (Zea mays), cotton (Gossypium hirsutum), eastern black nightshade (Solanum ptycanthum), fall panicum (Panicum dichotomiflorum), field bindweed (Convolvulus arvensis), giant foxtail (Setaria faberii), hairy beggarticks (Bidens pilosa), ivyleaf morningglory (Ipomoea hederacea), johnsongrass (Sorghum halepense), ladysthumb smartweed (Polygonum persicaria), lambsquarters (Chenopodium album), large crabgrass (Digitaria sanguinalis), purple nutsedge (Cyperus rotundus), redroot pigweed (Amaranthus retroflexus), soybean (Glycine max), surinam grass (Brachiaria decumbens), velvetleaf (Abutilon theophrasti) and wild poinsettia (Euphorbia heterophylla).\n(§4) Treated plants and untreated controls were maintained in a greenhouse for approximately 14, to 21 days, after which all treated plants were compared to untreated controls and visually evaluated. Plant response ratings, summarized in Table C, were based upon a 0 to 100 scale where 0 was no effect and 100 was complete control. A dash response (−) means no test result."}, "[7]": {"system": "johnsongrass", "test": "Test C postemergence johnsongrass", "type": "in vivo, Sorghum halepense", "conditions": "0 to 100 scale, 0 no effect, 100 complete control", "description": "as §2, §3, §4"}, "[8]": {"system": "velvetleaf", "test": "Test C postemergence velvetleaf", "type": "in vivo, Abutilon theophrasti", "conditions": "0 to 100 scale, 0 no effect, 100 complete control", "summary_of_the_method": "as §1"}, "[9]": {"system": "lambsquarters", "test": "Test C postemergence lambsquarters", "type": "in vivo, Chenopodium album", "conditions": "0 to 100 scale, 0 no effect, 100 complete control", "description": "as §2, §3, §4"}, "[10]": {"system": "fall panicum", "test": "Test C postemergence fall panicum", "type": "in vivo, Panicum dichotomiflorum", "conditions": "0 to 100 scale, 0 no effect, 100 complete control", "description": "as §2, §3, §4"}, "[11]": {"system": "ivyleaf morningglory", "test": "Test C postemergence ivyleaf morningglory", "type": "in vivo, Ipomoea hederacea", "conditions": "0 to 100 scale, 0 no effect, 100 complete control", "summary_of_the_method": "as §1"}, "[12]": {"system": "purple nutsedge", "test": "Test C postemergence purple nutsedge", "type": "in vivo, Cyperus rotundus", "conditions": "0 to 100 scale, 0 no effect, 100 complete control", "description": "as §2, §3, §4"}, "[13]": {"system": "hairy beggarticks", "test": "Test C postemergence hairy beggarticks", "type": "in vivo, Bidens pilosa", "conditions": "0 to 100 scale, 0 no effect, 100 complete control", "description": "as §2, §3, §4"}, "[14]": {"system": "arrowleaf sida", "test": "Test C postemergence arrowleaf sida", "type": "in vivo, Sida rhombifolia", "conditions": "0 to 100 scale, 0 no effect, 100 complete control", "summary_of_the_method": "as §1"}, "[15]": {"system": "corn", "test": "Test C postemergence corn", "type": "in vivo, Zea mays", "conditions": "0 to 100 scale, 0 no effect, 100 complete control", "summary_of_the_method": "as §1"}}, "data": [{"smiles": "Cc1ccccc1-n1c(=O)on(C(=O)N(c2ccccc2)C(C)C)c1=O", "note": "[Compound 36]", "values": [{"measurement": "Plant response rating, Green foxtail", "setting": "[1]", "result": 100}]}, {"smiles": "CC(C)N(C(=O)n1oc(=O)n(C2CCCC(C(F)(F)F)C2)c1=O)c1ccc(F)cc1", "note": "(stereo not shown) [Compound 184]", "values": [{"measurement": "Plant response rating, Morningglory", "setting": "[2]; Postemergence, Rate 1000 g/ha", "result": 10}, {"measurement": "Plant response rating, Morningglory", "setting": "[2]; Pre-emergence, Rate 2000 g/ha", "result": 0}]}, {"smiles": "CC(C)N(C(=O)n1oc(=O)n(N(C)c2ccccc2)c1=O)c1ccc(F)cc1", "note": "[Compound 177]", "values": [{"measurement": "Plant response rating, Morningglory", "setting": "[2]; Postemergence, Rate 1000 g/ha", "result": 0}, {"measurement": "Plant response rating, Morningglory", "setting": "[2]; Pre-emergence, Rate 2000 g/ha", "result": 0}]}, {"smiles": "CCN(C(=O)n1oc(=O)n(N(C)c2ccccc2)c1=O)C1CCCCC1", "note": "[Compound 183]", "values": [{"measurement": "Plant response rating, Morningglory", "setting": "[2]; Postemergence, Rate 1000 g/ha", "result": 0}, {"measurement": "Plant response rating, Morningglory", "setting": "[2]; Pre-emergence, Rate 2000 g/ha", "result": 0}]}, {"smiles": "Cc1ccccc1-n1c(=O)on(C(=O)N(c2cc(OC(C)C)c(Cl)cc2Cl)C(C)C)c1=O", "note": "[Compound 42]", "values": [{"measurement": "Plant response rating, Morningglory", "setting": "[2]; Postemergence, Rate 1000 g/ha", "result": 0}, {"measurement": "Plant response rating, Morningglory", "setting": "[2]; Pre-emergence, Rate 2000 g/ha", "result": 0}]}, {"smiles": "CC(C)N(C(=O)n1oc(=O)n(C)c1=O)c1ccc(Cl)cc1", "note": "[Compound 137]", "values": [{"measurement": "Plant response rating, Morningglory", "setting": "[2]; Postemergence, Rate 1000 g/ha", "result": 10}, {"measurement": "Plant response rating, Morningglory", "setting": "[2]; Pre-emergence, Rate 2000 g/ha", "result": 3}]}, {"smiles": "Cc1ccc(N(C(=O)n2oc(=O)n(C(C)C)c2=O)C(C)C)cc1", "note": "[Compound 132]", "values": [{"measurement": "Plant response rating, Giant foxtail", "setting": "[3]; Rate 140 g/ha", "result": 0}, {"measurement": "Plant response rating, Giant foxtail", "setting": "[3]; Rate 280 g/ha", "result": 0}, {"measurement": "Plant response rating, Giant foxtail", "setting": "[3]; Rate 560 g/ha", "result": 0}, {"measurement": "Plant response rating, Giant foxtail", "setting": "[3]; Rate 1120 g/ha", "result": 0}, {"measurement": "Plant response rating, Cocklebur", "setting": "[4]; Rate 140 g/ha", "result": 0}, {"measurement": "Plant response rating, Cocklebur", "setting": "[4]; Rate 280 g/ha", "result": 0}, {"measurement": "Plant response rating, Cocklebur", "setting": "[4]; Rate 560 g/ha", "result": 0}, {"measurement": "Plant response rating, Cocklebur", "setting": "[4]; Rate 1120 g/ha", "result": 0}, {"measurement": "Plant response rating Common ragweed", "setting": "[5]; Rate 140 g/ha", "result": 0}, {"measurement": "Plant response rating Common ragweed", "setting": "[5]; Rate 280 g/ha", "result": 0}, {"measurement": "Plant response rating Common ragweed", "setting": "[5]; Rate 560 g/ha", "result": 0}, {"measurement": "Plant response rating Common ragweed", "setting": "[5]; Rate 1120 g/ha", "result": 0}, {"measurement": "Plant response rating Surinam grass", "setting": "[6]; Rate 140 g/ha", "result": 0}, {"measurement": "Plant response rating Surinam grass", "setting": "[6]; Rate 280 g/ha", "result": 0}, {"measurement": "Plant response rating Surinam grass", "setting": "[6]; Rate 560 g/ha", "result": 0}, {"measurement": "Plant response rating Surinam grass", "setting": "[6]; Rate 1120 g/ha", "result": 30}, {"measurement": "Plant response rating Johnsongrass", "setting": "[7]; Rate 140 g/ha", "result": 0}, {"measurement": "Plant response rating Johnsongrass", "setting": "[7]; Rate 280 g/ha", "result": 0}, {"measurement": "Plant response rating Johnsongrass", "setting": "[7]; Rate 560 g/ha", "result": 0}, {"measurement": "Plant response rating Johnsongrass", "setting": "[7]; Rate 1120 g/ha", "result": 60}, {"measurement": "Plant response rating, Velvetleaf", "setting": "[8]; Rate 140 g/ha", "result": 0}, {"measurement": "Plant response rating, Velvetleaf", "setting": "[8]; Rate 280 g/ha", "result": 0}, {"measurement": "Plant response rating, Velvetleaf", "setting": "[8]; Rate 560 g/ha", "result": 0}, {"measurement": "Plant response rating, Velvetleaf", "setting": "[8]; Rate 1120 g/ha", "result": 0}, {"measurement": "Plant response rating Lambsquarters", "setting": "[9]; Rate 140 g/ha", "result": 0}, {"measurement": "Plant response rating Lambsquarters", "setting": "[9]; Rate 280 g/ha", "result": 0}, {"measurement": "Plant response rating Lambsquarters", "setting": "[9]; Rate 560 g/ha", "result": 0}, {"measurement": "Plant response rating Lambsquarters", "setting": "[9]; Rate 1120 g/ha", "result": 0}, {"measurement": "Plant response rating Fall panicum", "setting": "[10]; Rate 140 g/ha", "result": 0}, {"measurement": "Plant response rating Fall panicum", "setting": "[10]; Rate 280 g/ha", "result": 30}, {"measurement": "Plant response rating Fall panicum", "setting": "[10]; Rate 560 g/ha", "result": 50}, {"measurement": "Plant response rating Fall panicum", "setting": "[10]; Rate 1120 g/ha", "result": 50}, {"measurement": "Plant response rating I. morningglory", "setting": "[11]; Rate 140 g/ha", "result": 0}, {"measurement": "Plant response rating I. morningglory", "setting": "[11]; Rate 280 g/ha", "result": 0}, {"measurement": "Plant response rating I. morningglory", "setting": "[11]; Rate 560 g/ha", "result": 0}, {"measurement": "Plant response rating I. morningglory", "setting": "[11]; Rate 1120 g/ha", "result": 0}, {"measurement": "Plant response rating, Purple nutsedge", "setting": "[12]; Rate 140 g/ha", "result": 0}, {"measurement": "Plant response rating, Purple nutsedge", "setting": "[12]; Rate 280 g/ha", "result": 0}, {"measurement": "Plant response rating, Purple nutsedge", "setting": "[12]; Rate 560 g/ha", "result": 0}, {"measurement": "Plant response rating, Purple nutsedge", "setting": "[12]; Rate 1120 g/ha", "result": 0}, {"measurement": "Plant response rating H. beggarticks", "setting": "[13]; Rate 140 g/ha", "result": 0}, {"measurement": "Plant response rating H. beggarticks", "setting": "[13]; Rate 280 g/ha", "result": 0}, {"measurement": "Plant response rating Arrowleaf sida", "setting": "[14]; Rate 140 g/ha", "result": 0}, {"measurement": "Plant response rating Arrowleaf sida", "setting": "[14]; Rate 280 g/ha", "result": 0}, {"measurement": "Plant response rating Arrowleaf sida", "setting": "[14]; Rate 560 g/ha", "result": 10}, {"measurement": "Plant response rating Arrowleaf sida", "setting": "[14]; Rate 1120 g/ha", "result": 80}, {"measurement": "Plant response rating, Corn", "setting": "[15]; Rate 140 g/ha", "result": 0}, {"measurement": "Plant response rating, Corn", "setting": "[15]; Rate 280 g/ha", "result": 0}, {"measurement": "Plant response rating, Corn", "setting": "[15]; Rate 560 g/ha", "result": 0}, {"measurement": "Plant response rating, Corn", "setting": "[15]; Rate 1120 g/ha", "result": 10}]}]}
